Results from publication PMC7506137, “Selective Phosphodiesterase 1 Inhibitor BTTQ Reduces Blood Pressure in Spontaneously Hypertensive and Dahl Salt Sensitive Rats: Role of Peripheral Vasodilation” (Frontiers in Physiology, 2020).
Like-named read-outs stand apart in the source and are kept apart here.

Tests used:
[1] = Fraction unbound in rat plasma; assay type: in vitro ADME; conditions: read-out: FU Value (FU Plasma Exp Rat)
From the text: Supplement Table_2.xlsx, sheet "Supplementary table 2"

Rat PDE3A = target: T1, Rat PDE3A (Rattus norvegicus, UniProt Q62865); experiment: PDE scintillation proximity enzyme assay; assay type: biochemical
T1 construct: made in house; host or cells: baculovirus-infected insect cells
T1 sequence (Q62865 1-1141): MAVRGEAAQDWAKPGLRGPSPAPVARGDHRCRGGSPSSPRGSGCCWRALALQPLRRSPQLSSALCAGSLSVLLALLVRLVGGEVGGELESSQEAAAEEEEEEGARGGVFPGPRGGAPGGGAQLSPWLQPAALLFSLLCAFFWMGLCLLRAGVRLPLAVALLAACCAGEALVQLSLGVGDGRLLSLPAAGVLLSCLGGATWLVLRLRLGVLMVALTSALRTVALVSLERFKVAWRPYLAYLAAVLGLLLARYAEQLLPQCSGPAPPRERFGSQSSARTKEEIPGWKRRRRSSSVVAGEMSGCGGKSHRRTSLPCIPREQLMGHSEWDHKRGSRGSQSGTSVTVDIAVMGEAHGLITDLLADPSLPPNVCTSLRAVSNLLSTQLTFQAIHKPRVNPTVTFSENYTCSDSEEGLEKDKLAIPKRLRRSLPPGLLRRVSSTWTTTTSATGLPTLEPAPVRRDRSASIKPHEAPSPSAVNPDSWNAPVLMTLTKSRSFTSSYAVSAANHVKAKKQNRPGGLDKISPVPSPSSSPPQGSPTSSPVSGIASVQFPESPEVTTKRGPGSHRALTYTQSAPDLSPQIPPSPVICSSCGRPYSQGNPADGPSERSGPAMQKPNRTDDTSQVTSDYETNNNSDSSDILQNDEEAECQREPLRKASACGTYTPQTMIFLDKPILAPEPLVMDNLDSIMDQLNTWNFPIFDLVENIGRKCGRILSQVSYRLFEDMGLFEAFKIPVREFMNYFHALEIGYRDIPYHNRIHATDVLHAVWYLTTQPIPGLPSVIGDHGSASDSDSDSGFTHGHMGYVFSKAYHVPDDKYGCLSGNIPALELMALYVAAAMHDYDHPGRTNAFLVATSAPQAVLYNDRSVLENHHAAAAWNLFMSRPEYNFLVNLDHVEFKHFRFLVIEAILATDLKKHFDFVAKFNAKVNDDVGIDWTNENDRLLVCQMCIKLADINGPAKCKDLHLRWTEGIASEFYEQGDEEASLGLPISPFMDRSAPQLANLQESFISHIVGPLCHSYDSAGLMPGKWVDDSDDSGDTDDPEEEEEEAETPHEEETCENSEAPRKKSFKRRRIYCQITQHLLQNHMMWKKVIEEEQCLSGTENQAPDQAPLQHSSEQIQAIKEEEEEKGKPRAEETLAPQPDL
Method: (§1) All PDE enzyme activities were measured with a yittrium silicate based scintillation proximity assay that detects radioactive nucleotide monophosphates but not cyclic monophosphates. Assays are conducted in a total volume of 50 μl in 384 well plates (3706, Corning): comprised of 24 μl enzyme, 1 μl compound, and 25 μl of cyclic nucleotide. The general assay buffer consists of 50 mM Tris-HCl (pH 7.5) and 0.1% (w/v) bovine serum albumin (Fatty Acid Free, Sigma-Aldrich). Enzyme concentrations, substrate concentrations, and various PDE-specific buffer additives are described in Supplementary Table 1. Compounds to be tested are diluted in pure dimethyl sulfoxide (DMSO) using 10-point concentration-response curves, and 1 μl is acoustically dispensed into assay plates using the Echo555 (LabCyte). Maximal compound concentration in the reaction mixture is either 10 or 100 μM. Compounds at the appropriate concentration are pre-incubated with either of the PDE enzymes for 30 min before the reaction is started by the addition of substrate ([8-^3H]-cAMP, 20.7 Ci/mmol or [8-^3H]-cGMP; 6.5 Ci/mmol, Perkin Elmer). Reactions are allowed to proceed for 60 min at room temperature before quenching. Next, reactions are stopped by the addition of 400 μg/per well SPA beads (RPNQ0150, Perkin Elmer) and a potent non-selective PDE inhibitor to quench the reaction. Bead bound radioactivity (product) is quantified 12 h later a Microbeta counter (Perkin Elmer). Data is normalized to % inhibition using standard methods ([Campbell et al., 2004]), and IC50 values were plotted using PRISM (GraphPad Software) using the 4 parameter logistic equation ([Campbell et al., 2004]). Data for potency values are expressed as the geometric mean and arithmetic standard deviation.

Rat PDE1B = target: T2, Rat PDE1B (Rattus norvegicus, UniProt Q01066); experiment: PDE scintillation proximity enzyme assay; assay type: biochemical
T2 construct: made in house; host or cells: baculovirus-infected insect cells
T2 sequence (Q01066 1-535): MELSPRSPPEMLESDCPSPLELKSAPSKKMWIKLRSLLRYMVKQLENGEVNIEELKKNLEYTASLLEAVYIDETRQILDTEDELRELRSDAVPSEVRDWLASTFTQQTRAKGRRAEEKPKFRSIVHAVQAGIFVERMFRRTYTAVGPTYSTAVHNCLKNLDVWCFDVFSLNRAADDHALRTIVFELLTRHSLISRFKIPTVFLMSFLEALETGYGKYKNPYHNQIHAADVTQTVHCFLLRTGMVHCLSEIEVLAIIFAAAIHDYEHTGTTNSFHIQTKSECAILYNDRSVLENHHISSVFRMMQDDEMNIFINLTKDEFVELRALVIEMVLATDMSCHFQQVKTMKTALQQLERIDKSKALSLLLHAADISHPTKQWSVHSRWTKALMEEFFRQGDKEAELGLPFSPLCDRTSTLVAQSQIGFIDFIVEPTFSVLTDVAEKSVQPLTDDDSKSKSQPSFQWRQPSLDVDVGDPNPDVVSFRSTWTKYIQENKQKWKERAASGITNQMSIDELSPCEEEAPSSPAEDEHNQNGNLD
Method: as §1

O=c1c2nnc(C3(C4CC4)CC3)n2c2c(n1CC1CC1)CCCC2 [BTTQ, 1-[1,1′-bi(cyclopropyl)-1-yl]-5-(cyclopropylmethyl)-6,7,8,9-tetrahydro[1,2,4]triazolo[4,3-A]quinoxaline-4(5H)-one]
fraction unbound [1]: 0.053
IC50 (Rat PDE3A): inactive
IC50 (Rat PDE3A; read-out: IC50): > 100000 nM
IC50 (Rat PDE1B): 1 nM
